Legend:
[1] = target: GTPase KRas [G12D] (Homo sapiens, UniProt P01116, G12D); test: KRAS G12D LoEnz Biochemical Assay
Experimental: Biochemical compound potencies are assessed by evaluating inhibition of SOS1I-mediated nucleotide exchange in KRAS […]. In this assay, the SOS1-promoted exchange of fluorescently-labeled GDP (BOPIDY-GDP) is monitored by time-resolved fluorescence resonance energy transfer (TR-FRET). Compounds solubilized in DMS0 are dispensed as concentration series into 384-well white assay plates. A preformed complex of biotin-tagged recombinant human KRAS (0.06 nM mutant G1 2D) and 0.06 nM terbium-labeled streptavidin (CisBIO) prepared in 10 uL/well assay buffer (20 mM HEPES, pH 7.5, 50 mM NaCl, 10 mMMMgCl2, 0.0100 Tween-20 and 1 mM dithiothreitol) is added and allowed to incubate for 10-minutes at room temperature. The reaction is initiated with the addition of 5 uL 300 nM recombinant human SOS1 and 300 nM BODIPY-GDP in assay buffer. After a 120-minute incubation, the fluorescence is measured with excitation at 337 nm and emission at 490 and 520 nm. The TR-FRET ratio is determined as the fluorescence at 520 nm divided by the fluorescence at 490 nm multiplied by 10,000. The results are normalized to percent inhibition based on control samples: DMSO (0% inhibition) and control compound at a concentration that inhibits completely (100% inhibition).

[2] = target: GTPase KRas (Homo sapiens, UniProt P01116); test: KRAS WT Biochemical Assay
Experimental: Biochemical compound potencies are assessed by evaluating inhibition of SOS1-mediated nucleotide exchange in KRAS WT. In this assay, the SOS1-promoted exchange of fluorescently-labeled GDP (BOPIDY-GDP) is monitored by time-resolved fluorescence resonance energy transfer (TR-FRET). Compounds solubilized in DMSO are dispensed as concentration series into 384-well white assay plates. A preformed complex of 0.06 nM biotin-tagged recombinant human KRAS WT, 15 nM GDP and 0.06 nM terbium-labeled streptavidin (CisBIO) prepared in 10 uL/well assay buffer (20 mM HEPES, pH 7.5, 50 mM NaCl, 10 mM MgCl2, 0.01% Tween-20 and 1 mM dithiothreitol) is added and allowed to incubate for 10-minutes at room temperature. The reaction is initiated with the addition of 5 uL 300 nM recombinant human SOS1 and 300 nM BODIPY-GDP in assay buffer. After a 120-minute incubation, the fluorescence is measured with excitation at 337 nm and emission at 490 and 520 nm.

Sequence of GTPase KRas [G12D] (P01116 whole entry G12D): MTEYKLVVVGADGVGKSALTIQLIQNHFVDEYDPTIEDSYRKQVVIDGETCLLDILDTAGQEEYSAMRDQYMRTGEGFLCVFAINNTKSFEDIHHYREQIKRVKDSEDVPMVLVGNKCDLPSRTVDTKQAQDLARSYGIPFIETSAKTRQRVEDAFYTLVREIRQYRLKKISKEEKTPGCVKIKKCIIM
Sequence of GTPase KRas (P01116 whole entry): as the sequence (P01116 whole entry G12D) above, with D12G counted along it

Compound | IC50 [1] [nM] | IC50 [2] [nM]
Fc1c(-c2cccc3cccc(Cl)c23)nc2c3c(nc(OC[C@@]45CCCN4C[C@H](F)C5)nc13)N1C[C@H]3CC[C@H](N3)[C@H]1CO2 [US20240025919, Compound 2] | 15.2 | 922
C#Cc1c(F)ccc2cccc(-c3nc4c5c(nc(OCC67CCN6CC(F)(F)C7)nc5c3F)N3C[C@H]5CC[C@H](N5)[C@H]3[C@H](C)O4)c12 (some centres undefined) [US20240025919, Compound 22] | 2.99 | 
C[C@@H]1Oc2nc(-c3cc(N)c(F)c(F)c3CC(F)F)c(F)c3cc(OC[C@@H]4CC[C@H]5COCCN54)nc(c23)N2C[C@H]3CC[C@H](N3)[C@@H]12 [US20240025919, Compound 158] | 3.39 | 

From BindingDB's records for patent US20240025919 (Genentech, 2024)
